What was measured:
[1] = target: T1, Msh2–Msh3 (Msh2HA–Msh3) (Saccharomyces cerevisiae, UniProt P25336+P25847); test: single-molecule diffusion on DNA curtains (TIRF); type: binding; details: 1 mM ADP, 50 mM NaCl, 40 mM Tris-HCl pH 8; functional effect on diffusion along homoduplex DNA
T1 construct: heterodimer overexpressed in and purified from yeast; labelled with anti-HA quantum dots in single-molecule tests
T1 sequence (P25847 1-964): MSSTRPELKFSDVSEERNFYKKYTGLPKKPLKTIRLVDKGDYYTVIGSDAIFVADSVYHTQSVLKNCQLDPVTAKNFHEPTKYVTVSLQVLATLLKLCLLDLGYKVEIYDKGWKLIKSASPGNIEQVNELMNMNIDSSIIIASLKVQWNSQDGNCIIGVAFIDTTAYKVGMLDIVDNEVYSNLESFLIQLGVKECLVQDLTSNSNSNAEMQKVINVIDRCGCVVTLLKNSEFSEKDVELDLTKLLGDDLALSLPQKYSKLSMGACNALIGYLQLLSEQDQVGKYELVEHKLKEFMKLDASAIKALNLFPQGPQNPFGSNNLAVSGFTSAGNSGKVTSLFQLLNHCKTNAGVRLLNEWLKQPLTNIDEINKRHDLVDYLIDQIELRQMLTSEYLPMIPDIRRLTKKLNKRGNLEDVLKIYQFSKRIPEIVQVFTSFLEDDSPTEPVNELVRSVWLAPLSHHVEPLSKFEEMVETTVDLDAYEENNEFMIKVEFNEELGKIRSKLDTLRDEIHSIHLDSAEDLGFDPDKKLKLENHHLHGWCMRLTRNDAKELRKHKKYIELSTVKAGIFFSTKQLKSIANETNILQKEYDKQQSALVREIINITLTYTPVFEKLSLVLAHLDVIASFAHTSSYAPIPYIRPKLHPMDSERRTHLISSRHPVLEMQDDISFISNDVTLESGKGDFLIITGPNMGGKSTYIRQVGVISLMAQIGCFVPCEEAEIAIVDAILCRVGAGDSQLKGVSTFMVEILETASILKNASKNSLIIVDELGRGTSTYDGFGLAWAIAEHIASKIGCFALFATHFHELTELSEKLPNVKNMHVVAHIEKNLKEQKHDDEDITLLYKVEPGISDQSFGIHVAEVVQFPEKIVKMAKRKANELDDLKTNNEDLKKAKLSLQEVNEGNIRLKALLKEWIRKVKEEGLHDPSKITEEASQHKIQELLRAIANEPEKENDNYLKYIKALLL
T1 sequence (P25336 1-1018): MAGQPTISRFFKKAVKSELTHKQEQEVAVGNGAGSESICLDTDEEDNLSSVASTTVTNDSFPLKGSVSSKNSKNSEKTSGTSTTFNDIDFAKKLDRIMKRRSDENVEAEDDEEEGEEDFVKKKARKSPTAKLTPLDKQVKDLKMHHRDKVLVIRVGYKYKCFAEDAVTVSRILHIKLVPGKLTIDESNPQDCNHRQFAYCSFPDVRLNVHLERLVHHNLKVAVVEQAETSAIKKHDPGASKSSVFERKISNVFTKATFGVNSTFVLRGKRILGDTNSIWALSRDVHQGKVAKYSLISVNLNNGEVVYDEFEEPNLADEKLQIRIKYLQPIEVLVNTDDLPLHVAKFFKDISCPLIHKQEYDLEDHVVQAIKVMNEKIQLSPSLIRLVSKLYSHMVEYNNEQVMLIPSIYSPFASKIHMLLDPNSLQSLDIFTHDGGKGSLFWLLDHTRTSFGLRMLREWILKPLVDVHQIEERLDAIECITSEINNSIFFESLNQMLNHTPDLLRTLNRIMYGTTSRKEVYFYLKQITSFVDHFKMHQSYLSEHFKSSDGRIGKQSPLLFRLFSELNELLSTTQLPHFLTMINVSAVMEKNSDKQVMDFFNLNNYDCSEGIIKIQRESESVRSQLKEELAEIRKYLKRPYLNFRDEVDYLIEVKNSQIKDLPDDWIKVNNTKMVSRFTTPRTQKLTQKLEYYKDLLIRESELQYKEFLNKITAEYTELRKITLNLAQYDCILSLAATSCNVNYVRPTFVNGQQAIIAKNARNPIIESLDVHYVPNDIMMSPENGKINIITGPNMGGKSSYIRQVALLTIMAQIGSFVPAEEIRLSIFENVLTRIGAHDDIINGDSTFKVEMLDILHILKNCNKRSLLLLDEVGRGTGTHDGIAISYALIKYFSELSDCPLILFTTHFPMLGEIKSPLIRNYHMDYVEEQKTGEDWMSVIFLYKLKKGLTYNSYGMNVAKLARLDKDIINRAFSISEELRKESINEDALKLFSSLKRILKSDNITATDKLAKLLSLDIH

[2] = target: T1, Msh2–Msh3 (Msh2HA–Msh3); test: ATPase assay, gamma-32P-ATP, PEI-cellulose TLC; type: biochemical; details: 20-250 μM ATP, 2 mM MgCl2, pH 7.5, 30 °C, 100 nM protein, with or without 2 μM DNA
[3] = target: Msh2(HA)-Msh3 (Saccharomyces cerevisiae, UniProt P25847;P25336 1-964;1-1018); test: EMSA; no antibody or QD; EMSA: 20 mM HEPES pH 7.5, 100 mM NaCl, 1 mM DTT, 40 ug/ml BSA, 2 mM MgCl2, RT; curtains: 40 mM Tris-HCl pH 8, 25-150 mM NaCl, 2 mM MgCl2, 1-2 mM DTT, 0.2 mg/ml

Molecule: Nc1ncnc2c1ncn2[C@@H]1O[C@H](COP(=O)(O)OP(=O)(O)O)[C@@H](O)[C@H]1O [ADP]
- single-molecule diffusion on DNA curtains (TIRF) [1]: Here we show that ADP and ATP also alter the interactions of the yeast Msh2–Msh3

Molecule: Nc1ncnc2c1ncn2[C@@H]1O[C@H](COP(=O)(O)OP(=O)(O)OP(=O)(O)O)[C@@H](O)[C@H]1O [ATP]
- ATPase assay, gamma-32P-ATP, PEI-cellulose TLC [2]: Gel shift and ATPase assays indicated that the QD-tagged Msh2–Msh3 retained biochemical activities

B1: 3'-ssDNA flap LS1/LS3/LS16 (mixed)
DNA 1: CACGCTACCGAATTCTGACTTGCTAGGACATCTTTGCCCACGTTGACCC
DNA 2: TCGATAGTCTCTAGATAGCATGTCCTAGCAAGTCAGAATTCGGTAGCGTG
DNA 3: GCTATCTAGAGACTATCGA
- binding result [3]: binds
